Measurements taken from patent US11407729B2, “Quinoline and quinazoline compounds and methods of use thereof” (Stingray Therapeutics, Inc., priority 2019, dated 2022).

Experiments:
ENPP1 protein [1] = target: T1, ENPP1 protein (Homo sapiens, UniProt P22413); experiment: Thermal Shift Binding Assay; details: 1 μg of ENPP1 protein incubated with 100 μM of drug for 5 minutes; for ΔTm at 100 µM: read-out: Thermal Shift (Δ TmD)
T1 sequence (P22413 1-925): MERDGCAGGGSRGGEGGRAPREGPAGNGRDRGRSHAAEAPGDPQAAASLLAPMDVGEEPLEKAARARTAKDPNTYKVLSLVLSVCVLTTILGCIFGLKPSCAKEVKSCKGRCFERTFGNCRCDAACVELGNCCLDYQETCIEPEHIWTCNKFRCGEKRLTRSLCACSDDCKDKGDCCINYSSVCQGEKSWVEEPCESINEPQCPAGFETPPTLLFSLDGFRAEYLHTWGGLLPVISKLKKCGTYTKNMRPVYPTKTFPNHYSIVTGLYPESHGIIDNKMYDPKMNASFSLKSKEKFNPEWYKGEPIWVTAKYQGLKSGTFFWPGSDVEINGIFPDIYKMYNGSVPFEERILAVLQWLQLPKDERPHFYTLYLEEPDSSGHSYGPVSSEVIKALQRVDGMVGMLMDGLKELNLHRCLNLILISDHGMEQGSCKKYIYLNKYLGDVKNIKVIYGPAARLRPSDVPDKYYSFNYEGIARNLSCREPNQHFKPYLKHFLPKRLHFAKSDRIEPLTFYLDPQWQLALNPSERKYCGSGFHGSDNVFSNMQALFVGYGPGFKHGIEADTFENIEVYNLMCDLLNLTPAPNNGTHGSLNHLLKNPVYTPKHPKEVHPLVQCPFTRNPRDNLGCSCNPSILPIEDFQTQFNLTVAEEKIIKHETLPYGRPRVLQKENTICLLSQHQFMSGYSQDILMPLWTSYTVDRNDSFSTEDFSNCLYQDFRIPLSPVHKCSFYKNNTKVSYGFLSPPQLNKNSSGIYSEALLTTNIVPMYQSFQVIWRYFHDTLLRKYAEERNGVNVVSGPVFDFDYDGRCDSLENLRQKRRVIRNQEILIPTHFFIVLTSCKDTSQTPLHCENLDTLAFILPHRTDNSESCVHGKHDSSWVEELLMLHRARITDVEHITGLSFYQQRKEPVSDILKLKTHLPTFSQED
Experimental: Thermal Shift Binding Assay.
The Thermal Shift Assays were implemented to study thermal stabilization of ENPP1 proteins upon ENPP1 inhibitor or ligand binding. These assays were used extensively on purified ENPP1 protein. In a 384-well plate, 1 μg of ENPP1 protein was incubated with 100 μM of the corresponding drug for 5 minutes. Each well was exposed to increasing temperatures to determine an unfolding temperature of the protein. […] 2′3′ cGAMP was used as a positive control, as it is a substrate of ENPP1.

ENPP1 protein [2] = target: T1, ENPP1 protein; experiment: ENPP1 Inhibition Assay; assay type: biochemical; set-up: purchased R&D 6136-EN-010; details: substrate Thymidine 5′-monophosphate p-nitrophenol ester; 37° C. for 45 minutes; absorbance at 405 nm
Experimental: 1. ENPP1 Inhibition Assay
An eight point serial dilution of drugs was prepared in 10× in assay buffer with the final assay concentrations starting at 10 μM, 3 μM, 1 μM, 0.3 μM . . . 0 μM. A dilution of DMSO was included as a control. The assay plate was set up as follows with each well in duplicate: 81 μL assay buffer+10 μL ENPP1 inhibitor or DMSO+5 μL Substrate+4 μL Enzyme. Both the enzyme and substrate were added to opposite sides of the well to ensure that there was no interaction until all wells had both components. The plate was then centrifuged gently for 10 seconds, followed by an incubation at 37° C. for 45 minutes.
IC50 values are determined using GraphPad Prism 5 software. The data were entered as an X-Y plot into the software as percent inhibition for each concentration of the drug. The concentration values of the drug were log transformed and the nonlinear regression was carried out using the “sigmoidal dose-response (variable slope)” option within the GraphPad software to model the data and calculate IC50 values.

Row | Molecule | Thermal Shift (Δ TmD) (ENPP1 protein [1]) | IC50 (ENPP1 protein [2]) | ΔTm at 100 µM (ENPP1 protein [1])
1 | N-(2-(1-(6,7-dimethoxyquinolin-4-yl)piperidin-4-yl)propyl)sulfamoylcarbamate [Compound I-02] | 5.0 | 5.95 nM | –
2 | COc1cc2nccc(N3CCC(C(C)CNS(N)(=O)=O)CC3)c2cc1N1CCOCC1 (centres unmarked) [Compound I-12] | – | 835 nM | 3.6 °C
3 | N-(2-(1-(6,7-dimethoxyquinazolin-4-yl)piperidin-4-yl)propyl)sulfonamide urea [Compound I-01] | 5.5 | 2.79 nM | –
4 | CCC(CNS(N)(=O)=O)C1CCN(c2ccnc3cc(OC)c(OC)cc23)CC1 (centres unmarked) [Compound I-13, N-(2-(1-(6,7-dimethoxyquinolin-4-yl)piperidin-4-yl)butyl)sulfuricdiamide] | – | 4.55 nM | 4 °C
